Laboratory results: patent US5110904A (Abbott Laboratories, priority 1990, dated 1992)
Starred links: 1 amine or outer side, 2 acyl side, 3 side chain; linkers in the order of their positions; H or OH if unused. Non-standard residues stand in square brackets, D forms with d. Residues, ends and D or L forms follow the SMILES beside them. Groups on a side chain read outwards from the residue. *: point of attachment. dAla(4-thiazolyl) = N[C@H](Cc1cscn1)C(=O)O; dPhe(4-Cl) = N[C@H](Cc1ccc(Cl)cc1)C(=O)O; d1Nal = N[C@H](Cc1cccc2ccccc12)C(=O)O; d2Nal = N[C@H](Cc1ccc2ccccc2c1)C(=O)O; Lys(iPr) = CC(C)NCCCC[C@H](N)C(=O)O; NMeY = CN[C@@H](Cc1ccc(O)cc1)C(=O)O; Piperazinyl(4-Me) = CN1CCN(*)CC1; d3Pal = N[C@H](Cc1cccnc1)C(=O)O; d2Thi = N[C@H](Cc1cccs1)C(=O)O; NMeL = CN[C@@H](CC(C)C)C(=O)O; Nicotinoyl = O=C(c1cccnc1)*; NMeS = CN[C@@H](CO)C(=O)O; Morpholide = C1CN(*)CCO1; CO = O=C([*:1])[*:2]; azaGly = NNC(=O)O; Sar = CNCC(=O)O

Legend:
[1] = biological target: T1, LH release (Rattus norvegicus, UniProt P30969); assay: In vivo LH release in castrated rats; conditions: rat, iv, dose producing half-maximal LH release, i.v., time integrated LH response, read-out: ED50 ug/kg i.v.
T1 sequence (P30969 1-327): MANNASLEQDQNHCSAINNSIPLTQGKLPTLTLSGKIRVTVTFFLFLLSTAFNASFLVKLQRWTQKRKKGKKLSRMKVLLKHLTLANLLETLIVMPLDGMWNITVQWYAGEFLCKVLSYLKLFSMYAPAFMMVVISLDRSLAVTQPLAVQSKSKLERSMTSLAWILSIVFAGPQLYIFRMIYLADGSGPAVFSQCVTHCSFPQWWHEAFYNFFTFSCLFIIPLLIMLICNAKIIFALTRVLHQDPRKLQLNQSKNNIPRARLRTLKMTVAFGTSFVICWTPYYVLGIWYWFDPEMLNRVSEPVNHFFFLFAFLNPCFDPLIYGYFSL
Description: The compound to be tested is administered to castrated rats intraveneously and the serum LH concentration at various time points is measured by RIA. The time integrated LH response is calculated and the dose producing half-maximal LH release (ED50) is reported.

[2] = tested on: LH concentration in the blood; assay: In vivo LH inhibition in male castrate rats; design: species or system rat; conditions: AUC of log(LHt/LHi) over 24 hours, 30 ug/kg subcutaneous bolus
Description: The compound to be tested is administered at 30 μg/kg subcutaneously by bolus injection to male castrate rats and blood samples are collected periodically over 24 hours. The AUC (area under the curve) of the LH supression data as a function of time is calculated using the formula log (LHt /LHi) wherein LHt is the LH concentration in the blood at time t and LHi is the initial baseline value for the concentration of LH in the blood. The AUC values are negative numbers.

[3] = biological target: T2, LHRH receptors (Rattus norvegicus, UniProt P30969); assay: Radioligand receptor binding assay, rat pituitary membranes; conditions: radioiodinated [D-Leu6-des Gly10]-LHRH ethyl amide 50 pM, 2 hours at 4° C., read-out: Receptor Binding pkI (converted)
T2 sequence (P30969 1-327): T1 sequence (P30969 1-327)
Description: The radioligand (50 pM), receptors, and compounds to be tested are coincubated for 2 hours at 4° C. Bound ligand is separated from free ligand via centrifugation and aspiration.

SMILES	ED50 [1] [µg/kg]	AUC (24 hr. after 30 ug/kg) [2]	Ki [3] [nM]
CC(C)C[C@H](NC(=O)[C@@H](Cc1ccc2ccccc2c1)NC(=O)[C@H](Cc1ccc(O)cc1)NC(=O)[C@H](CO)N(C)C(=O)[C@H](Cc1c[nH]c2ccccc12)NC(=O)[C@H](Cc1c[nH]cn1)NC(=O)[C@@H]1CCC(=O)N1)C(=O)N[C@@H](CCCNC(=N)N)C(=O)N1CCC[C@H]1C(=O)NCC(N)=O [Ex. 3, (pyro)Glu-His-Trp-N-Me-Ser-Tyr-D-(2)-Nal-Leu-Arg-Pro-Gly-NH2]	0.129	–	–
CCNC(=O)[C@@H]1CCCN1C(=O)[C@H](CCCNC(=N)N)NC(=O)[C@H](CC(C)C)NC(=O)[C@@H](Cc1c[nH]c2ccccc12)NC(=O)[C@H](Cc1ccc(O)cc1)NC(=O)[C@H](CO)N(C)C(=O)[C@H](Cc1c[nH]c2ccccc12)NC(=O)[C@H](Cc1c[nH]cn1)NC(=O)CN(C)C(C)=O [Ex. 14, N-AcSar-His-Trp-N-Me-Ser-Tyr-D-Trp-Leu-Arg-Pro-NHEt] (Ac-[Sar]HW[NMeS]Y[dW]LRP-NHEt)	0.39	–	–
CC(=O)N[C@H](Cc1ccc2ccccc2c1)C(=O)N[C@H](Cc1ccc(Cl)cc1)C(=O)N[C@H](Cc1cccnc1)C(=O)N(C)[C@@H](CO)C(=O)N[C@@H](CCCCNC(=O)c1cccnc1)C(=O)N[C@H](CCCCNC(=O)c1cccnc1)C(=O)N[C@@H](CC(C)C)C(=O)N[C@@H](CCCCNC(C)C)C(=O)N1CCC[C@H]1C(=O)N[C@H](C)C(N)=O [Ex. 35, N-Ac-D-2-Nal-D-4-Cl-Phe-D-3-Pal-N-Me-Ser-Lys-(N-epsilon-nicotinyl)-D-Lys-(N-epsilon-nicotinyl)-Leu-Lys-(N-epsilon-isopropyl)-Pro-D-AlaNH2] (Ac-[d2Nal][dPhe(4-Cl)][d3Pal][NMeS]K(Nicotinoyl)[dK](Nicotinoyl)L[Lys(iPr)]P[dA]-NH2)	–	-510	0.479
CC(=O)N[C@H](Cc1ccc2ccccc2c1)C(=O)N[C@H](Cc1ccc(Cl)cc1)C(=O)N[C@H](Cc1cccnc1)C(=O)N[C@@H](CO)C(=O)N(C)[C@@H](Cc1ccc(O)cc1)C(=O)N[C@H](CCCCNC(=O)c1cccnc1)C(=O)N[C@@H](CC(C)C)C(=O)N[C@@H](CCCCNC(C)C)C(=O)N1CCC[C@H]1C(=O)N[C@H](C)C(N)=O [Ex. 38, N-Ac-D-2-Nal-D-4-Cl-Phe-D-3-Pal-Ser-N-Me-Tyr-D-Lys(N-epsilon-nicotinyl)-Leu-Lys(N-epsilon-isopropyl)-Pro-D-AlaNH2] (Ac-[d2Nal][dPhe(4-Cl)][d3Pal]S[NMeY][dK](Nicotinoyl)L[Lys(iPr)]P[dA]-NH2)	–	-1000	0.0316
CC(=O)N[C@H](Cc1ccc2ccccc2c1)C(=O)N[C@H](Cc1ccc(Cl)cc1)C(=O)N[C@H](Cc1cscn1)C(=O)N[C@@H](CO)C(=O)N(C)[C@@H](Cc1ccc(O)cc1)C(=O)N[C@H](CCCCNC(=O)c1cccnc1)C(=O)N[C@@H](CC(C)C)C(=O)N[C@@H](CCCCNC(C)C)C(=O)N1CCC[C@H]1C(=O)N[C@H](C)C(N)=O [Ex. 43, N-Ac-D-2-Nal-D-4-Cl-Phe-D-4-Thiaz-Ser-N-Me-Tyr-D-Lys-(N-epsilon-nicotinyl)-Leu-Lys(N-epsilon-isopropyl)-Pro-D-AlaNH2] (Ac-[d2Nal][dPhe(4-Cl)][dAla(4-thiazolyl)]S[NMeY][dK](Nicotinoyl)L[Lys(iPr)]P[dA]-NH2)	–	-337	0.0339
CC(=O)N[C@H](Cc1ccc2ccccc2c1)C(=O)N[C@H](Cc1ccc(Cl)cc1)C(=O)N[C@H](Cc1cccnc1)C(=O)N[C@@H](CO)C(=O)N(C)[C@@H](Cc1ccc(O)cc1)C(=O)N[C@H](CCCCNC(=O)c1cccnc1)C(=O)N[C@@H](CC(C)C)C(=O)N[C@@H](CCCCNC(C)C)C(=O)N1CCC[C@H]1C(=O)N(C)CC(N)=O [Ex. 44, N-Ac-D-2-Nal-D-4-Cl-Phe-D-3-Pal-Ser-N-Me-Tyr-D-Lys(N-epsilon-nicotinyl)-Leu-Lys(N-epsilon-isopropyl)-Pro-SarNH2] (Ac-[d2Nal][dPhe(4-Cl)][d3Pal]S[NMeY][dK](Nicotinoyl)L[Lys(iPr)]P[Sar]-NH2)	–	-571	0.0331
CC(=O)N[C@H](Cc1ccc(Cl)cc1)C(=O)N[C@H](Cc1ccc(Cl)cc1)C(=O)N[C@H](Cc1cccc2ccccc12)C(=O)N[C@@H](CO)C(=O)N(C)[C@@H](Cc1ccc(O)cc1)C(=O)N[C@H](CCCCN)C(=O)N[C@@H](CC(C)C)C(=O)N[C@@H](CCCNC(=N)N)C(=O)N1CCC[C@H]1C(=O)N[C@H](C)C(N)=O [Ex. 46, N-Ac-D-4-Cl-Phe-D-4-Cl-Phe-D-1-Nal-Ser-N-Me-Tyr-D-Lys-Leu-Arg-Pro-D-AlaNH2] (Ac-[dPhe(4-Cl)][dPhe(4-Cl)][d1Nal]S[NMeY][dK]LRP[dA]-NH2)	–	-1513	–
CC(=O)N(C)CC(=O)N[C@H](Cc1ccc(Cl)cc1)C(=O)N[C@H](Cc1cccc2ccccc12)C(=O)N[C@@H](CO)C(=O)N(C)[C@@H](Cc1ccc(O)cc1)C(=O)N[C@H](CCCCNC(=O)c1cccnc1)C(=O)N[C@@H](CC(C)C)C(=O)N[C@@H](CCCCNC(C)C)C(=O)N1CCC[C@H]1C(=O)N[C@H](C)C(N)=O [Ex. 63, N-Ac-Sar-D-4-Cl-Phe-D-1-Nal-Ser-N-Me-Tyr-D-Lys(N-epsilon-nicotinyl)-Leu-Lys(N-epsilon-isopropyl)-Pro-D-AlaNH2] (Ac-[Sar][dPhe(4-Cl)][d1Nal]S[NMeY][dK](Nicotinoyl)L[Lys(iPr)]P[dA]-NH2)	–	-707	0.0447
CC(=O)NNC(=O)N[C@H](Cc1ccc(Cl)cc1)C(=O)N[C@H](Cc1cccc2ccccc12)C(=O)N[C@@H](CO)C(=O)N(C)[C@@H](Cc1ccc(O)cc1)C(=O)N[C@H](CCCCNC(=O)c1cccnc1)C(=O)N[C@@H](CC(C)C)C(=O)N[C@@H](CCCCNC(C)C)C(=O)N1CCC[C@H]1C(=O)N[C@H](C)C(N)=O [Ex. 65, N-Ac-alpha-Azagly-D-4-Cl-Phe-D-1-Nal-Ser-N-Me-Tyr-D-Lys(N-epsilon-nicotinyl)-Leu-Lys(N-epsilon-isopropyl)-Pro-D-AlaNH2] (Ac-[azaGly][dPhe(4-Cl)][d1Nal]S[NMeY][dK](Nicotinoyl)L[Lys(iPr)]P[dA]-NH2)	–	-1114	0.0575
CC(=O)N[C@H](Cc1ccc2ccccc2c1)C(=O)N[C@H](Cc1ccc(Cl)cc1)C(=O)N[C@H](Cc1cccnc1)C(=O)N[C@@H](CO)C(=O)N(C)[C@@H](Cc1ccc(O)cc1)C(=O)N[C@H](CCCCNC(=O)c1cccnc1)C(=O)N(C)[C@@H](CC(C)C)C(=O)N[C@@H](CCCCNC(C)C)C(=O)N1CCC[C@H]1C(=O)N[C@H](C)C(N)=O [Ex. 67, N-Ac-D-2-Nal-D-4-Cl-Phe-D-3-Pal-Ser-N-Me-Tyr-D-Lys(N-epsilon-nicotinyl)-N-Me-Leu-Lys(N-epsilon-isopropyl)-Pro-D-AlaNH2] (Ac-[d2Nal][dPhe(4-Cl)][d3Pal]S[NMeY][dK](Nicotinoyl)[NMeL][Lys(iPr)]P[dA]-NH2)	–	-400	0.0302
CC(=O)N[C@H](Cc1ccc(Cl)cc1)C(=O)N[C@H](Cc1ccc(Cl)cc1)C(=O)N[C@H](Cc1cccs1)C(=O)N[C@@H](CO)C(=O)N(C)[C@@H](Cc1ccc(O)cc1)C(=O)N[C@H](CCCCNC(=O)c1cccnc1)C(=O)N(C)[C@@H](CC(C)C)C(=O)N[C@@H](CCCNC(=N)N)C(=O)N1CCC[C@H]1C(=O)N[C@H](C)C(N)=O [Ex. 68, N-Ac-D-4-Cl-Phe-D-4-Cl-Phe-D-2-Thia-Ser-N-Me-Tyr-D-Lys(N-epsilon-nicotinyl)-N-Me-Leu-Arg-Pro-D-Ala-NH2] (Ac-[dPhe(4-Cl)][dPhe(4-Cl)][d2Thi]S[NMeY][dK](Nicotinoyl)[NMeL]RP[dA]-NH2)	–	–	0.12
CC(=O)N[C@H](Cc1ccc2ccccc2c1)C(=O)N[C@H](Cc1ccc(Cl)cc1)C(=O)N[C@H](Cc1cccnc1)C(=O)N[C@@H](CO)C(=O)N(C)[C@@H](Cc1ccc(O)cc1)C(=O)N[C@H](CCCCNC(=O)N1CCOCC1)C(=O)N[C@@H](CC(C)C)C(=O)N[C@@H](CCCCNC(C)C)C(=O)N1CCC[C@H]1C(=O)N[C@H](C)C(N)=O [Ex. 69] (Ac-[d2Nal][dPhe(4-Cl)][d3Pal]S[NMeY][dK]([CO-Morpholide])L[Lys(iPr)]P[dA]-NH2)	–	-467	0.017
CC(=O)N[C@H](Cc1ccc2ccccc2c1)C(=O)N[C@H](Cc1ccc(Cl)cc1)C(=O)N[C@H](Cc1cccnc1)C(=O)N[C@@H](CO)C(=O)N(C)[C@@H](Cc1ccc(O)cc1)C(=O)N[C@H](CCCCNC(=O)N1CCN(C)CC1)C(=O)N[C@@H](CC(C)C)C(=O)N[C@@H](CCCCNC(C)C)C(=O)N1CCC[C@H]1C(=O)N[C@H](C)C(N)=O [Ex. 70, N-Ac-D-2--Nal-D-4-Cl-Phe-D-3-Pal-Ser-N-Me-Tyr-D-Lys(N-epsilon-CO-NMePip)-Leu-Lys(N-epsilon-isopropyl)-Pro-D-AlaNH2] (Ac-[d2Nal][dPhe(4-Cl)][d3Pal]S[NMeY][dK]([CO-Piperazinyl(4-Me)])L[Lys(iPr)]P[dA]-NH2)	–	–	0.012
